{"source": "patent US9521847B2", "about": "“Synergistic weed control from applications of pyridine carboxylic acid herbicides and synthetic auxin herbicides and/or auxin transport inhibitors” (Dow AgroSciences LLC, priority 2014, dated 2016)", "key": {"[1]": {"tested_on": "pigweed (AMARE, Amaranthus retroflexus)", "assay": "Greenhouse postemergence trial, % visual injury", "type": "in vivo"}, "[2]": {"tested_on": "winter rape (BRSNW, Brassica napus)", "assay": "Greenhouse postemergence trial, % visual injury", "type": "in vivo", "details": "fluroxypyr-MHE 70 g ae/ha"}, "[3]": {"tested_on": "common lambsquarters (CHEAL, Chenopodium album L.)", "assay": "Greenhouse postemergence trial, % visual injury", "type": "in vivo", "details": "Chenopodium album, post-emergence, read-out: % visual injury Obs"}, "[4]": {"tested_on": "kochia (KCHSC, Kochia scoparia)", "assay": "Greenhouse postemergence trial, % visual injury", "type": "in vivo", "details": "fluroxypyr-MHE 100 g ae/ha", "experimental": "Following the protocol in Example 1, compound 1 and compound 2 were combined with 2,4 D EHE (EC) and applied to kochia (KCHSC, Kochia scoparia) and the phytotoxicity of the herbicidal compositions was measured.\nFollowing the protocol in Example 1, compound 1 (EC) and Compound 2 (SC) were combined with diflufenzopyr and applied to kochia (Kochia scoparia, KCHSC) and the phytotoxicity of the herbicidal composition was measured."}, "[5]": {"tested_on": "velvetleaf (Abutilon theophrasti, ABUTH)", "assay": "Greenhouse postemergence trial, % visual injury", "type": "in vivo"}, "[6]": {"tested_on": "nutsedge (Cyperus esculentus, CYPES)", "assay": "Greenhouse postemergence trial, % visual injury", "type": "in vivo", "details": "CYPES, 70 g ae/ha"}, "[7]": {"tested_on": "sunflower (Helianthus annus, HELAN)", "assay": "Greenhouse postemergence trial, % visual injury", "type": "in vivo"}, "[8]": {"tested_on": "wild buckwheat (Polygonum convolvulus, POLCO)", "assay": "Greenhouse postemergence trial, % visual injury", "type": "in vivo"}, "[9]": {"tested_on": "Russian thistle (Salsola iberica, SASKR)", "assay": "Greenhouse postemergence trial, % visual injury", "type": "in vivo", "details": "fluroxypyr-MHE 70 g ae/ha"}, "[10]": {"tested_on": "wild mustard (Sinapis arvensis, SINAR)", "assay": "Greenhouse postemergence trial, % visual injury", "type": "in vivo", "details": "fluroxypyr-MHE 70 g ae/ha"}, "[11]": {"tested_on": "blackgrass (Alopecurus myosuroides, ALOMY)", "assay": "Greenhouse postemergence trial, % visual injury", "type": "in vivo", "details": "70 g ae/ha"}, "[12]": {"tested_on": "wild oat (Avena fatua, VEFA)", "assay": "Greenhouse postemergence trial, % visual injury", "type": "in vivo", "details": "AVEFA"}, "[13]": {"tested_on": "large crabgrass (Digitaria sanguinalis, DIGSA)", "assay": "Greenhouse postemergence trial, % visual injury", "type": "in vivo", "details": "Digitaria sanguinalis, post-emergence, read-out: % visual injury, Obs"}, "[14]": {"tested_on": "barnyardgrass (Echinochloa crus-galli, ECHCG)", "assay": "Greenhouse postemergence trial, % visual injury", "type": "in vivo", "details": "fluroxypyr-MHE 100 g ae/ha"}, "[15]": {"tested_on": "kochia (KCHSC, Kochia scoparia)", "assay": "Greenhouse postemergence trial, % visual injury", "type": "in vivo"}, "[16]": {"tested_on": "Canadian thistle (CIRAR, Cirsium arvense)", "assay": "Greenhouse postemergence trial, % visual injury", "details": "Cirsium arvense, post-emergence"}, "[17]": {"tested_on": "spring rape (Brassica napus, BRSNN)", "assay": "Greenhouse postemergence trial, % visual injury", "details": "Brassica napus, post-emergence"}, "[18]": {"tested_on": "poinsettia (Euphorbia heterophylla, EPHHL)", "assay": "Greenhouse postemergence trial, % visual injury", "details": "Euphorbia heterophylla, post-emergence, read-out: % visual injury, Obs"}, "[19]": {"tested_on": "wild pansy (Viola tricolor, VIOTR)", "assay": "Greenhouse postemergence trial, % visual injury", "details": "for % visual injury, Obs: VIOTR"}, "[20]": {"tested_on": "ivyleaf morningglory (Ipomoea hederacea, IPOHE)", "assay": "Greenhouse postemergence trial, % visual injury"}, "spring barley (HORVS)": {"tested_on": "spring barley (HORVS)", "assay": "Greenhouse postemergence trial, crop phytotoxicity (% visual injury)"}, "winter wheat (TRZAW)": {"tested_on": "winter wheat (TRZAW)", "assay": "Greenhouse postemergence trial, crop phytotoxicity (% visual injury)", "details": "for % visual injury, Obs: TRZAW"}, "maize (ZEAMX)": {"tested_on": "maize (ZEAMX)", "assay": "Greenhouse postemergence trial, crop phytotoxicity (% visual injury)", "details": "for % visual injury, Obs: ZEAMX"}, "common rice (ORYSA)": {"tested_on": "common rice (ORYSA)", "assay": "Greenhouse postemergence trial, crop phytotoxicity (% visual injury)"}, "[21]": {"tested_on": "ivyleaved speedwell (Veronica hederifolia, VERHE)", "assay": "Greenhouse postemergence trial, % visual injury", "type": "in vivo", "details": "aminocyclopyrachlor 100 g ae/ha"}, "[22]": {"tested_on": "grain sorghum (Sorghum vulgare, SORVU)", "assay": "Greenhouse postemergence trial, % visual injury", "type": "in vivo"}, "[23]": {"tested_on": "common chickweed (Stellaria media, STEME)", "assay": "Greenhouse postemergence trial, % visual injury", "type": "in vivo", "details": "aminopyralid-TIPA 5 g ae/ha"}, "[24]": {"details": "read-out: % visual injury (Obs)"}}}
{"smiles": "CCCCCCC(C)OC(=O)COc1nc(F)c(Cl)c(N)c1Cl", "note": "(centres unmarked) [Fluroxypyr-MHE, fluroxypyr-meptyl, reference compound]", "values": [{"measurement": "% visual injury, Obs", "setting": "[1]; AMARE, 70 g ae/ha", "value": 70, "unit": "%"}, {"measurement": "% visual injury (Obs)", "setting": "[1]; fluroxypyr-MHE 70 g ae/ha", "value": 50, "unit": "%"}, {"measurement": "% visual injury (Obs)", "setting": "[2]", "value": 95, "unit": "%"}, {"measurement": "pest or weed control at 70 g/ha", "setting": "[3]", "value": 10, "unit": "%"}, {"measurement": "% visual injury (Obs)", "setting": "[4]", "value": 65, "unit": "%"}, {"measurement": "pest or weed control at 70 g/ha", "setting": "[5]; Abutilon theophrasti, post-emergence, read-out: % visual injury, Obs", "value": 40, "unit": "%"}, {"measurement": "% visual injury (Obs)", "setting": "[5]; fluroxypyr-MHE 100 g ae/ha", "value": 70, "unit": "%"}, {"measurement": "% visual injury, Obs", "setting": "[6]", "value": 0, "unit": "%"}, {"measurement": "% visual injury (Obs)", "setting": "[7]; fluroxypyr-MHE 100 g ae/ha", "value": 80, "unit": "%"}, {"measurement": "% visual injury (Obs)", "setting": "[8]; fluroxypyr-MHE 70 g ae/ha", "value": 75, "unit": "%"}, {"measurement": "% visual injury (Obs)", "setting": "[9]", "value": 95, "unit": "%"}, {"measurement": "% visual injury (Obs)", "setting": "[10]", "value": 85, "unit": "%"}, {"measurement": "% visual injury, Obs", "setting": "[11]", "value": 0, "unit": "%"}, {"measurement": "% visual injury, Obs", "setting": "[12]; 70 g ae/ha", "value": 0, "unit": "%"}, {"measurement": "pest or weed control at 70 g/ha", "setting": "[13]", "value": 33, "unit": "%"}, {"measurement": "% visual injury (Obs)", "setting": "[14]", "value": 0, "unit": "%"}, {"measurement": "% visual injury (Obs)", "setting": "[15]; fluroxypyr-MHE 70 g ae/ha", "value": 93, "unit": "%"}, {"measurement": "pest or weed control at 100 g/ha", "setting": "[16]; read-out: % visual injury (Obs), fluroxypyr-MHE 100 g ae/ha", "value": 60, "unit": "%"}, {"measurement": "pest or weed control at 70 g/ha", "setting": "[16]; read-out: % visual injury Obs, 70 g ae/ha alone, 20-22 d", "value": 10, "unit": "%"}, {"measurement": "plant injury at 100 g/ha", "setting": "[17]; [24]", "value": 85, "unit": "%"}, {"measurement": "plant injury at 70 g/ha", "setting": "[17]; read-out: % visual injury, Obs", "value": 15, "unit": "%"}, {"measurement": "pest or weed control at 70 g/ha", "setting": "[18]", "value": 18, "unit": "%"}, {"measurement": "% visual injury, Obs", "setting": "[19]; 70 g ae/ha", "value": 80, "unit": "%"}, {"measurement": "% visual injury (Obs)", "setting": "[19]; fluroxypyr-MHE 100 g ae/ha", "value": 80, "unit": "%"}, {"measurement": "pest or weed control at 70 g/ha", "setting": "[20]; Ipomoea, post-emergence, read-out: % visual injury, Obs", "value": 80, "unit": "%"}, {"measurement": "% visual injury Obs", "setting": "spring barley (HORVS); crop, 70 g ae/ha alone, 20-22 d", "value": 20, "unit": "%"}, {"measurement": "% visual injury (Obs)", "setting": "spring barley (HORVS); fluroxypyr-MHE 70 g ae/ha", "value": 0, "unit": "%"}, {"measurement": "% visual injury, Obs", "setting": "winter wheat (TRZAW); 70 g ae/ha", "value": 0, "unit": "%"}, {"measurement": "% visual injury (Obs)", "setting": "winter wheat (TRZAW); fluroxypyr-MHE 70 g ae/ha", "value": 0, "unit": "%"}, {"measurement": "% visual injury (Obs)", "setting": "winter wheat (TRZAW); fluroxypyr-MHE 100 g ae/ha", "value": 0, "unit": "%"}, {"measurement": "% visual injury, Obs", "setting": "maize (ZEAMX); 70 g ae/ha", "value": 0, "unit": "%"}, {"measurement": "% visual injury (Obs)", "setting": "maize (ZEAMX); fluroxypyr-MHE 100 g ae/ha", "value": 0, "unit": "%"}, {"measurement": "% visual injury (Obs)", "setting": "common rice (ORYSA); fluroxypyr-MHE 100 g ae/ha", "value": 0, "unit": "%"}]}
{"smiles": "Nc1nc(C2CC2)nc(C(=O)O)c1Cl", "note": "[aminocyclopyrachlor, reference compound]", "values": [{"measurement": "% visual injury (Obs)", "setting": "[21]", "value": 75, "unit": "%"}]}
{"smiles": "Nc1cc(Cl)nc(C(=O)O)c1Cl", "note": "[aminopyralid-TIPA, aminopyralid-triisopropanolammonium, reference compound]", "values": [{"measurement": "% visual injury (Obs)", "setting": "[7]; aminopyralid-TIPA 5 g ae/ha", "value": 60, "unit": "%"}, {"measurement": "% visual injury (Obs)", "setting": "[8]; aminopyralid-TIPA 5 g ae/ha", "value": 65, "unit": "%"}, {"measurement": "% visual injury, Obs", "setting": "[22]; SORVU, 5 g ae/ha", "value": 5, "unit": "%"}, {"measurement": "% visual injury (Obs)", "setting": "[22]; aminopyralid-TIPA 5 g ae/ha", "value": 0, "unit": "%"}, {"measurement": "% visual injury (Obs)", "setting": "[23]", "value": 60, "unit": "%"}, {"measurement": "% visual injury, Obs", "setting": "[12]; 5 g ae/ha", "value": 0, "unit": "%"}, {"measurement": "pest or weed control at 5 g/ha", "setting": "[13]", "value": 5, "unit": "%"}, {"measurement": "% visual injury (Obs)", "setting": "[15]; aminopyralid-TIPA 5 g ae/ha", "value": 10, "unit": "%"}, {"measurement": "pest or weed control at 5 g/ha", "setting": "[16]; read-out: % visual injury (Obs), aminopyralid-TIPA 5 g ae/ha", "value": 60, "unit": "%"}, {"measurement": "plant injury at 5 g/ha", "setting": "[17]; [24]", "value": 10, "unit": "%"}, {"measurement": "pest or weed control at 5 g/ha", "setting": "[18]", "value": 18, "unit": "%"}, {"measurement": "% visual injury, Obs", "setting": "[19]; 5 g ae/ha", "value": 48, "unit": "%"}, {"measurement": "% visual injury (Obs)", "setting": "[19]; aminopyralid-TIPA 5 g ae/ha", "value": 10, "unit": "%"}, {"measurement": "% visual injury (Obs)", "setting": "[20]; aminopyralid-TIPA 5 g ae/ha", "value": 60, "unit": "%"}, {"measurement": "% visual injury, Obs", "setting": "winter wheat (TRZAW); 5 g ae/ha", "value": 0, "unit": "%"}, {"measurement": "% visual injury (Obs)", "setting": "winter wheat (TRZAW); aminopyralid-TIPA 5 g ae/ha", "value": 0, "unit": "%"}, {"measurement": "% visual injury, Obs", "setting": "maize (ZEAMX); 5 g ae/ha", "value": 3, "unit": "%"}, {"measurement": "% visual injury (Obs)", "setting": "maize (ZEAMX); aminopyralid-TIPA 5 g ae/ha", "value": 0, "unit": "%"}, {"measurement": "% visual injury (Obs)", "setting": "common rice (ORYSA); aminopyralid-TIPA 5 g ae/ha", "value": 0, "unit": "%"}]}
